Test: Stability study of TA 2005 HFA solution formulation in cans
Assay type: physicochemical
Conditions: HFA formulation able to deliver 4 μg per actuation; cans stored upright at 5° C.; after nine months
Protocol: A stability study on a formulation able to deliver 4 μg per actuation was initiated storing the cans upright at 5° C.

In the case of COc1ccc(C[C@@H](C)NC[C@H](O)c2ccc(O)c3[nH]c(=O)ccc23)cc1 [TA 2005, 8-hydroxy-5-[(1R)-1-hydroxy-2-[[(1R)-2-(4-methoxyphenyl)-1-methylethyl]amino]ethyl]-2(1H)-quinolinone], the “TA 2005 assay” value is reported as “higher than 95%”.

Reference: patent US20090263488A1, “PRESSURISED METERED DOSE INHALERS CONTAINING SOLUTIONS OF BETA-2 AGONISTS” (Chiesi Farmaceutici S.p.A., priority 2002, published 2009)
